Results published in article PMC11799985 (ACS Omega, 2024).
Where “and” joins values, the source holds several entries; their conditions need not be identical. Equal entries are not always repeated. Where two headings read alike, the source gives them in different places.

Key:
[1] = system: T. cruzi epimastigote; parameters: method as in PMID 26014945, PMID 29357372, PMID 28241112, PMID 19937668, PMID 19060927; conditions: cited from earlier work
[2] = system: T. cruzi amastigote; parameters: method as in PMID 26014945, PMID 29357372, PMID 28241112, PMID 19937668, PMID 19060927; conditions: cited from earlier work
[3] = target: T1, TbSir2rp1 (Trypanosoma brucei brucei, UniProt Q57V41); test: biochemical; conditions: for ligand efficiency (LE): LE = –R·T·ln(IC50)/HAC, from TbSir2rp1 IC50; for IC50: TbSir2rp1, enzyme 1 μM, NAD+ 100 μM, acetylated peptide 50 μM, 37 °C, 2 h, read-out: IC50; for Hill coefficient (nH): concentration–response curve against TbSir2rp1
T1 construct: The TbSir2rp1 gene was cloned into the pET24(+) expression plasmid (Novagen); His tag; made in house; host or cells: Escherichia coli BL21-Codon Plus (DE3)-RIL
T1 sequence (Q57V41 1-351): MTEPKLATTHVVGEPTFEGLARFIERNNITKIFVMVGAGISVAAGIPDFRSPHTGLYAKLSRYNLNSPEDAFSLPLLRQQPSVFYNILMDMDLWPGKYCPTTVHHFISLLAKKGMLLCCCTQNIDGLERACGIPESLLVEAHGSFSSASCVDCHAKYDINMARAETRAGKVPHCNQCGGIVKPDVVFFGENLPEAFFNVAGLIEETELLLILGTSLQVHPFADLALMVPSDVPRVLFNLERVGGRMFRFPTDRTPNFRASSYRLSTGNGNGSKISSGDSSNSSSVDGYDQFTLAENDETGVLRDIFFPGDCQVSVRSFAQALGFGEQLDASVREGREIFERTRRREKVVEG
Method: The acetylated peptide corresponds to the sequence Abz-Gly-Pro-acetylLys-SerGln–EDDnp, where Abz is ortho-aminobenzoic acid and EDDnp is N-[2,4-dinitrophenyl]ethylenediamine.
To halt the deacetylation reaction, 4 mM nicotinamide was used. For each pair of wells in the 96-well plate, 0.2 mg/mL of trypsin was added to only one well to hydrolyze the acetylated peptide, enabling fluorescence emission. Fluorescence was measured immediately at 420 nm with excitation at 320 nm using a SpectraMax M2 microplate reader (Molecular Devices).
Deacetylation activity was determined by the difference between the well where trypsin was added and the well without trypsin. All assays were performed in triplicate, and activity values were reported as means ± standard deviations with outliers identified and excluded from the calculations. Statistical analyses were conducted using Prism 7 software (GraphPad).
The screening of the 90 fragments was performed at a single concentration of 500 μM in triplicate. The enzyme was used at 1 μM, and the substrates NAD^+ and acetylated peptide were used at 100 and 50 μM, respectively. Incubation was carried out at 37.0 °C for 2 h. Each fragment was added to a pair of wells, with trypsin being added to only one well, as previously described for inhibitory activity calculation. […] Ligand efficiency (LE) was calculated as LE = –R·T·ln(IC50)/HAC using IC50 values instead of KD for comparison. […] The inhibition mechanism was characterized using Lineweaver–Burk plots under five concentrations of each substrate and three concentrations of the fragment. IC50 values were determined with at least seven different concentrations, and Lineweaver–Burk analysis used six concentrations.

[4] = system: T. brucei; parameters: method as in PMID 7097719; conditions: cited from earlier work
[5] = system: infected mice; conditions: cited from earlier work
[6] = system: human lung cells (WI-26VA-4); parameters: method as in PMID 33295837; conditions: WI-26VA-4 human lung cells; cited from earlier work
[7] = system: T. cruzi; parameters: method as in PMID 34936867; conditions: T. cruzi-infected mice; cited from earlier work
[8] = system: L. donovani amastigote; parameters: method as in PMID 26014945, PMID 29357372, PMID 28241112, PMID 19937668, PMID 19060927; conditions: cited from earlier work
[9] = system: TcSir2rp3; parameters: method as in PMID 26014945, PMID 29357372, PMID 28241112, PMID 19937668, PMID 19060927; conditions: cited from earlier work
[10] = system: LiSir2rp1; parameters: method as in PMID 26014945, PMID 29357372, PMID 28241112, PMID 19937668, PMID 19060927; conditions: cited from earlier work
[11] = system: L. infantum amastigote; parameters: method as in PMID 26014945, PMID 29357372, PMID 28241112, PMID 19937668, PMID 19060927; conditions: cited from earlier work
[12] = target: T1, TbSir2rp1; test: biochemical; assay type: biochemical
[13] = read-out: % Inhibition TbSir2rp1, Table S2, complete fragment library, single concentration of 500 μM
[14] = read-out: % Inhibition TbSir2rp1 at 500 μM, Table 1, fragment 500 μM, triplicate, mean ± SD

O=C1c2cccc3cccc(c23)C(=O)N1CCCNCCCCNCCCNCCCN1C(=O)c2cccc3cccc(c23)C1=O [BNIPSpd]
EC50 [1]: 13.3 µM | EC50 [2]: 2.8 µM

Cc1c(O)c2ccccc2c2nc(N)sc12 [Fragment 1]
ligand efficiency (LE) [3]: 0.41 | IC50 [3]: 17.8 µM | Hill coefficient (nH) [3]: 1.22 | inhibition at 500 µM [3, 13]: 99 ± 0.47% | inhibition at 500 µM [3, 14]: 99 ± 0.5% | minimum lytic concentration [4]: 100 µM | maximum tolerated dose [5]: 50 mg/kg

Cc1ccc(S(=O)(=O)N/N=C/c2cccs2)cc1 [Fragment 2]
CC50 [6]: 226 µM | ligand efficiency (LE) [3]: 0.31 | IC50 [3]: < 100 µM and 77.9 µM | Hill coefficient (nH) [3]: 0.77 | inhibition at 500 µM [3, 13]: 84 ± 2.3% | inhibition at 500 µM [3, 14]: 83.7 ± 2.3%

NC(=O)N1c2ccccc2C=Cc2ccccc21 [O=C(N)N1C2=CC=CC=C2C=CC3=CC=CC=C31]
inhibition at 500 µM [3, 13]: 2.1 ± 5%

NC(=O)N1c2ccccc2CC(=O)c2ccccc21 [O=C(N)N1C2=CC=CC=C2CC(C3=CC=CC=C31)=O]
inhibition at 500 µM [3, 13]: 0.85 ± 6.5%

CCC1(c2ccccc2)C(=O)NC(=O)NC1=O [O=C(NC(C1(CC)C2=CC=CC=C2)=O)NC1=O]
inhibition at 500 µM [3, 13]: 2.7 ± 1.6%

CCC1(CC)C(=O)NC(=O)NC1=O [O=C(NC(C1(CC)CC)=O)NC1=O]
inhibition at 500 µM [3, 13]: 19 ± 6%

CNC(=O)c1c(C(C)C)oc2nc(N3CCCC3)ccc12 [O=C(NC)C1=C(C(C)C)OC2=C1C=CC(N3CCCC3)=N2]
inhibition at 500 µM [3, 13]: 47 ± 10%

NNC(=O)Cc1cccnc1 [O=C(NN)CC1=CN=CC=C1]
inhibition at 500 µM [3, 13]: 2.3 ± 22%

O=C(NNc1ccccc1)NNc1ccccc1 [O=C(NNC1=CC=CC=C1)NNC2=CC=CC=C2]
inhibition at 500 µM [3, 13]: 48 ± 1.8%

O=C(O)c1ccccc1O [O=C(O)C1=CC=CC=C1O]
inhibition at 500 µM [3, 13]: -10 ± 1.7%

N[C@@H](Cc1ccc(O)c(O)c1)C(=O)O [O=C(O)[C@@H](N)CC1=CC=C(O)C(O)=C1]
inhibition at 500 µM [3, 13]: -4 ± 4.1%

CCOC(=O)c1ccc(N)cc1 [O=C(OCC)C1=CC=C(N)C=C1]
inhibition at 500 µM [3, 13]: 12 ± 1.4%

CCN(CC)CCOC(=O)c1ccc(N)cc1 [O=C(OCCN(CC)CC)C1=CC=C(N)C=C1]
inhibition at 500 µM [3, 13]: 50 ± 11%

Nc1ccc(S(N)(=O)=O)cc1 [O=S(C1=CC=C(N)C=C1)(N)=O]
inhibition at 500 µM [3, 13]: -4.7 ± 2.3%

Cc1ccc(S(=O)(=O)n2cccc2)cc1 [O=S(N1C=CC=C1)(C2=CC=C(C)C=C2)=O]
inhibition at 500 µM [3, 13]: -22 ± 5.8%

O=[N+]([O-])c1cccc(C2=NCCO2)c1 [O=[N+](C1=CC=CC(C2=NCCO2)=C1)[O-]]
inhibition at 500 µM [3, 13]: 44 ± 24%

O=c1cc(-c2ccccc2)c2c(O)cc(O)cc2o1 [OC1=CC(O)=CC(O2)=C1C(C3=CC=CC=C3)=CC2=O]
inhibition at 500 µM [3, 13]: 17 ± 27%

CC(C)[C@@H]1CC[C@@H](C)CC1O (stereo partly drawn) [OC1[C@H](C(C)C)CC[C@@H](C)C1]
inhibition at 500 µM [3, 13]: 22 ± 5%

Sc1nnc(Cc2ccccc2)s1 [SC1=NN=C(CC2=CC=CC=C2)S1]
inhibition at 500 µM [3, 13]: 9.4 ± 1%

O=C(/C=C/c1cccc2c1oc1ccccc12)NO [TB56]
parasite burden [7]: reduced parasite burden

O=c1[nH]c(=S)[nH]c(-c2ccccc2)c1Cc1c(O)ccc2ccccc12 [cambinol]
EC50 [8]: 1.7 µM

COC(=O)Nc1nc2ccc(C(=O)c3ccccc3)cc2[nH]1 [mebendazole, reference compound]
ligand efficiency (LE) [3]: 0.24 | IC50 [3]: 121 µM | Hill coefficient (nH) [3]: 1.25

CC(C(=O)Nc1cccc(/N=C/c2c(O)ccc3ccccc23)c1)c1ccccc1 (stereo not drawn) [salermide]
EC50 [1]: 10.6 µM | IC50 [9]: 1 µM

CC(NC(=O)c1ccccc1/N=C/c1c(O)ccc2ccccc12)c1ccccc1 (stereo not drawn) [sirtinol]
IC50 [10]: 194 µM | EC50 [11]: 30 µM | EC50 [8]: 5 µM

Cc1cc(C)nc(NS(=O)(=O)c2ccc(N)cc2)n1 [sulfamethazine]
% inhibition at 100 µM ([12]; Table S3, sulfonyl-hydrazone series, single concentration of 100 μM): Inconc.

Cc1cc(NS(=O)(=O)c2ccc(N)cc2)no1 [sulfamethoxazole, reference compound]
inhibition at 100 µM ([12]; read-out: % inhibition at 100 µM, Table S3, sulfonyl-hydrazone series, single concentration of 100 μM): 2 ± 5.3% | inhibition of TbSir2rp1 (in words) [3]: did not induce any inhibition
